Measurements from patent US20190177440A1, “COMPOUND OR SALT THEREOF, ANTI-INFLAMMATORY AGENT, ANTI-CANCER AGENT AGAINST LUNG CANCER, METHOD OF PRODUCING COMPOUND OR SALTS THEREOF, METHOD OF TREATING INFLAMMATORY DISEASES AND METHOD OF TREATING LUNG CANCER” (TFK CO., LTD., priority 2016, published 2019).

Experiments:
NF-κB = assay: Nuclear NF-κB level in RAW264.7 cells stimulated with LPSp (Example 5); assay type: cell-based, mouse; conditions: final 1, 100 and 10,000 ng/mL, then LPSp 100 ng/mL, FIG. 5
Protocol: The culture medium was added to mouse macrophage cells (RAW264.7, ATCC) to prepare solutions at concentrations of 1.067×10^6 cells/mL. The solutions were seeded in 6 well plates in 3 mL portions, i.e., 3.2×10^6 cells/3 mL/well. After seeding, the test solution was incubated at 37° C. in a 5% CO2 for 2 hours, and 30 μL of the test solution was added to each well. After adding the test solution, the test solution was incubated at 37° C. in a 5% CO2 for 24 hours. The culture supernatant of each of the wells was then collected in a 15 mL tube. Then, 1 mL of the fresh culture solution was added to each of the wells, and after spreading over the entire well, the operation of collecting the culture solution into the 15 mL tube was repeated twice. Thereafter, the culture solution collected in the 15 mL tube was centrifuged at 1,000 rpm for 3 minutes, the supernatant was removed, and 3 mL of a new culture solution at 37° C. was added to suspend the culture solution, and centrifuged again under the same conditions. After centrifugation, the supernatant was removed, and 2 mL of the above-mentioned culture solution at 37° C. was added to the precipitate and suspended. Then, 2 mL of the suspension was added to each well to which 1 mL of a new culture medium had been added in advance. Thereafter, 30 μL of a new culture medium was added (hereinafter, this step is referred to as a “culture medium addition step”). After incubation at 37° C. in a 5% CO2 for 30 minutes, the culture supernatants of the wells were collected in 15-mL tubes, centrifuged at 1,000 rpm for 3 minutes, and the supernatants were removed by an aspirator. In addition, to the wells of the 6-well plate from which the culture supernatant was removed, 3 mL of cooled PBS (Phosphate buffered saline)/Phosphatase Inhibitors solution was added, the cells were removed by pipetting, and the cell suspension was added to the 15-mL tubes. The 15 mL tube was centrifuged at 1,000 rpm for 3 minutes, the supernatant was removed by an aspirator, and 0.5 mL of the cooled PB S/Phosphatase Inhibitors solution was added to the 15 mL tube and suspended to prepare a cell suspension. Nucleoproteins were extracted from the cell suspensions using Nuclear Extract kit (manufactured by Active Motif).
The amount of NF-κB in the nucleoprotein was confirmed by measuring the absorbance using the Trans AM NF KB p65 kit (manufactured by Active Motif).
In this example, an experiment was conducted in the same manner as in Example 4 except for the following two points, and the amount of NF-κB in the nucleoprotein was confirmed by measuring the absorbance. That is, in this example, three types of test solutions were used as the test solution, in which the concentration of the purified product was 100 ng/mL, 10,000 ng/mL, and 1,000,000 ng/mL. […]

[1] = test system: Lewis lung carcinoma: 3LL; assay: Tumor volume in mice bearing Lewis lung carcinoma 3LL (Example 9); assay type: in vivo, mouse; conditions: Example 9-1: ip 0.5 mg/10 mL/kg once, without CY; days 3, 6, 9; FIG. 9
Protocol: (1) Preparation of Cancer-Bearing Mice Suspensions of Lewis lung cancer cell lines (Lewis lung carcinoma: 3LL, obtained from JCRB cell banks) were subcutaneously administered to the ventral region of five male C57 BL/6J mice aged 6 weeks so that the cancer cell dose per animal was 2.5×10^5 cells per 200 μL. Two weeks after dosing, tumors were excised from one of the mice and washed on dishes with PBS (−). Next, the washed tumor was made into a finely divided tumor fragment of about 2 mm square, the tumor fragment was transferred to a 50 mL tube, 5 mL of collagenase solution was added, and the mixture was warmed at 37° C. for 10 minutes. Thereafter, the collagenase solution containing the tumor fragments was pipetted into finer tumor fragments, and the collagenase solution containing the tumor fragments was transferred to another 50 mL tube and cooled on ice. After cooling, an additional 5 mL of collagenase solution was added to the collagenase solution containing the tumor fragments, and the same procedure was repeated 5 times until no tumor fragments could be observed. Thereafter, the collagenase solution containing the tumor fragment was filtered through a cell strainer (mesh size: 70 μm, manufactured by BD Corporation), and the filtrate was centrifuged at 1200 rpm for 7 minutes. After centrifugation, the supernatant was removed, 20 ml of […] medium (serum-free) was added to the precipitate, and after suspension by inversion mixing, the precipitate was centrifuged at 1200 rpm for 7 minutes. After centrifugation, the supernatant was removed, and the precipitate was washed twice with PBS (−), and then 10 mL of PBS (−) was added and suspended to prepare a cancer cell suspension. The cancer cell suspension was subcutaneously administered to the ventral portion of the 12 mice so that the cancer cell dose per animal was 2.5×10^5 cells per 200 μL. Fourteen days after dosing, tumors were excised from 10 of the mice and cancer cell suspensions were prepared in the same manner as described above. The cancer cell suspensions were administered intracutaneously into the abdomen of the 108 mice so that the cancer cell dose per animal was 2.5×10^5 cells per 50 μL. After administration, mice were divided into six groups (n=6 in each group) as shown below at the time point when the tumor size of each mouse became about 5 mm in diameter (day 8 after administration). […]
The major and minor diameters of the tumors were measured using calipers on Days 3, 6 and 9 on the day of grouping as day 0, and the tumor volume was calculated based on these measurements. […]

SMILES | amount of NF-κB in the nucleoprotein (absorbance) (NF-κB) | tumor volume versus saline group [1]
CCCCCC/C=C/CCCCCC(=O)OC(CCCCCCCCCCC)CC(=O)NC1C(OCC2OC(OP(=O)(O)O)C(NC(=O)CC(=O)CCCCCCCCCCC)C(OC(=O)CC(O)CCCCCCC)C2O)OC(COC2(C(=O)O)CC(OC3(C(=O)O)CC(O)C(OC4OC(C(=O)O)C(OC5OC(CO)C(O)C(O)C5O)C(O)C4O)C(C(O)CO)O3)C(OC3OC(CO)C(O)C(O)C3O)C(C(O)CO)O2)C(OP(=O)(O)O)C1OC(=O)CC(O)CCCCCCC (centres unmarked) [Formula (B2)] | Equivalent results were obtained | equivalent results
CCCCCC/C=C/CCCCCC(=O)OC(CCCCCCCCCCC)CC(=O)NC1C(OCC2OC(OP(=O)(O)O)C(NC(=O)CC(=O)CCCCCCCCCCC)C(OC(=O)CC(O)CCCCCCC)C2O)OC(COC2(C(=O)O)CC(OC3(C(=O)O)CC(OC4OC(C(=O)O)C(OC5OC(CO)C(O)C(O)C5O)C(O)C4O)C(O)C(C(O)CO)O3)C(OC3OC(CO)C(O)C(O)C3O)C(C(O)CO)O2)C(OP(=O)(O)O)C1OC(=O)CC(O)CCCCCCC (centres unmarked) [Formula (A2)] | Equivalent results were obtained | equivalent results
CCCCCC/C=C/CCCCCC(=O)OC(CCCCCCCCCCC)CC(=O)NC1C(OCC2OC(OP(=O)(O)O)C(NC(=O)CC(=O)CCCCCCCCCCC)C(OC(=O)CC(O)CCCCCCC)C2O)OC(COC2(C(=O)O)CC(OC3(C(=O)O)CC(OC4OC(C(=O)O)C(OC5OC(CO)C(O)C(O)C5O)C(O)C4O)C(O)C(C(O)CO)O3)C(OC3OC(COP(=O)(O)O)C(OC4OC(CO)C(O)C(O)C4O)C(O)C3O)C(C(O)CO)O2)C(OP(=O)(O)O)C1OC(=O)CC(O)CCCCCCC (centres unmarked) [Formula (A1)] | Equivalent results were obtained | equivalent results
CCCCCC/C=C/CCCCCC(=O)OC(CCCCCCCCCCC)CC(=O)NC1C(OCC2OC(OP(=O)(O)O)C(NC(=O)CC(=O)CCCCCCCCCCC)C(OC(=O)CC(O)CCCCCCC)C2O)OC(COC2(C(=O)O)CC(OC3(C(=O)O)CC(O)C(OC4OC(C(=O)O)C(OC5OC(CO)C(O)C(O)C5O)C(O)C4O)C(C(O)CO)O3)C(OC3OC(COP(=O)(O)O)C(OC4OC(CO)C(O)C(O)C4O)C(O)C3O)C(C(O)CO)O2)C(OP(=O)(O)O)C1OC(=O)CC(O)CCCCCCC (centres unmarked) [Formula (B1)] | Equivalent results were obtained | equivalent results
